The supplement of paper PMC11061612

Columns and labels:
EW-11 (Ewing's Sarcoma) = assay: Bliss excess, mean over the matrix (fraction); higher = more synergy
Summary of the method: (§1)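 Cell lines grown in DMEM/F12 or RPMI with 10% FBS were plated in 1536-well plates and held 24 hours at 37°C, 5% CO2 before 72 hours of exposure to two-drug dose matrices, with DMSO typically at 0.2%. CellTiter-Glo 2.0 luminescence gave viability, which was converted to inhibition. Vehicle wells were set to 0 and blank wells to 1. Combination Emax is the second-highest inhibition in the matrix, and Bliss excess is the observed combination effect minus the expected EA + EB − EA·EB, where EA and EB are the single-agent effects.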

[1] = test system: KYAE-1 (Esophageal Adenocarcinoma); assay: as above
Summary of the method: as §1

[2] = test system: SAS (Oral Cavity Carcinoma); assay: as above
Summary of the method: as §1

CAL-72 (Osteosarcoma) [3] = assay: as above
Summary of the method: as §1

[4] = test system: OVCAR-5 (Ovarian Carcinoma); assay: as above
Summary of the method: as §1

LOXIMVI (Melanoma) [5] = assay: as above
Summary of the method: as §1

[6] = test system: SW1710 (Bladder Carcinoma); assay: as above
Summary of the method: as §1

MPP-89 (Mesothelioma) = assay: as above
Summary of the method: as §1

CAL-72 (Osteosarcoma) [7] = assay: combination Emax (second highest fraction inhibited in the dose matrix, 72 h); higher = more inhibition; extreme values may be limits of the assay
Summary of the method: as §1

LOXIMVI (Melanoma) [8] = assay: as above
Summary of the method: as §1
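Throughout, for Bliss excess, mean over the matrix: after 72 h of two-drug dosing.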

Row | Compound | Bliss excess (EW-11 (Ewing's Sarcoma)) | Bliss excess [1] | Bliss excess [2] | Bliss excess (CAL-72 (Osteosarcoma) [3]) | Bliss excess [4] | Bliss excess (LOXIMVI (Melanoma) [5]) | Bliss excess [6] | Bliss excess (MPP-89 (Mesothelioma)) | combination Emax (CAL-72 (Osteosarcoma) [7]) | combination Emax (LOXIMVI (Melanoma) [8])
1 | C=CCn1c(=O)c2cnc(Nc3ccc(N4CCN(C)CC4)cc3)nc2n1-c1cccc(C(C)(C)O)n1 [AZD1775] + CCc1c2c(nc3ccc(O)cc13)-c1cc3c(c(=O)n1C2)COC(=O)[C@]3(O)CC [SN-38] (first compound max 1 µM, partner max 0.3 µM) | -0.113 | -0.0013 | 0.0334 | 0.017 | -0.0215 | -0.0862 | 0.0053 | 0.0163 | 0.838 | 0.863
2 | C=CCn1c(=O)c2cnc(Nc3ccc(N4CCN(C)CC4)cc3)nc2n1-c1cccc(C(C)(C)O)n1 [AZD1775] + Nc1ccn([C@@H]2O[C@H](CO)[C@@H](O)C2(F)F)c(=O)n1 [Gemcitabine] (first compound max 1 µM, partner max 0.3 µM) | -0.0613 |  | 0.0585 | -0.0796 | 0.0364 | -0.0118 | 0.0838 | 0.0505 | 0.716 | 0.797
3 | CN(CCO)CC[C@H](CSc1ccccc1)Nc1ccc(S(=O)(=O)NC(=O)c2ccc(N3CCC([C@@H](O)c4ccccc4-c4ccc(Cl)cc4)CC3)cc2)cc1S(=O)(=O)C(F)(F)F [AZD4320] + CS(=O)(=O)CCNCc1ccc(-c2ccc3ncnc(Nc4ccc(OCc5cccc(F)c5)c(Cl)c4)c3c2)o1 [Lapatinib] (first compound max 1 µM, 7x7, partner max 10 µM) | 0.0342 | 0.0699 | 0.0214 | -0.0174 | -0.0031 | 0.0113 | -0.0324 | 0.0479 | 0.933 | 0.64
4 | Cc1c2c(nn1C)CSCc1cc(n(C)n1)CSc1cc(c3ccccc3c1)OCCCc1c(C(=O)O)n(C)c3c-2c(Cl)ccc13 [AZD5991] + CC(=O)O[C@H]1C(=O)[C@@]2(C)[C@H]([C@H](OC(=O)c3ccccc3)[C@]3(O)C[C@H](OC(=O)[C@H](O)[C@@H](NC(=O)c4ccccc4)c4ccccc4)C(C)=C1C3(C)C)[C@]1(OC(C)=O)CO[C@@H]1C[C@@H]2O [Paclitaxel] (first compound max 1 µM, 7x7, partner max 3 µM) | 0.0039 | 0.0015 | 0.0067 | -0.0853 | -0.0389 | -0.0081 | -0.0241 | -0.0347 | 0.736 | 0.755
5 | Cc1c2c(nn1C)CSCc1cc(n(C)n1)CSc1cc(c3ccccc3c1)OCCCc1c(C(=O)O)n(C)c3c-2c(Cl)ccc13 [AZD5991] + Nc1ccn([C@@H]2O[C@H](CO)[C@@H](O)C2(F)F)c(=O)n1 [Gemcitabine] (first compound max 1 µM, 7x7, partner max 0.3 µM) | -0.0422 | 0.0034 | -0.0223 | 0.0305 | -0.0442 | -0.0338 | -0.0571 | -0.0354 | 0.613 | 0.835
6 | C[C@@H]1COCCN1c1cc(C2([S@](C)(=N)=O)CC2)nc(-c2ccnc3[nH]ccc23)n1 [AZD6738] + C1CC(C1)(C(=O)[O-])C(=O)[O-].N.N.[Pt+2] [Carboplatin] (first compound max 10 µM, 7x7, partner max 10 µM) | -0.041 | -0.015 | -0.0459 | -0.063 | -0.0347 | -0.0438 | -0.0642 | -0.035 | 0.718 | 0.619
7 | C[C@@H]1COCCN1c1cc(C2([S@](C)(=N)=O)CC2)nc(-c2ccnc3[nH]ccc23)n1 [AZD6738] + Nc1ccn([C@@H]2O[C@H](CO)[C@@H](O)C2(F)F)c(=O)n1 [Gemcitabine] (first compound max 10 µM, 7x7, partner max 0.3 µM) | -0.0094 | -0.0077 | 0.0762 | 0.0282 | -0.0407 | 0.0221 | 0.0769 | 0.0348 | 0.897 | 0.92
8 | C[C@@H](Nc1cc(F)cc(F)c1)c1cc(C(=O)N(C)C)cc2c(=O)cc(N3CCOCC3)oc12 [AZD8186] + CC(=O)c1c(C)c2cnc(Nc3ccc(N4CCNCC4)cn3)nc2n(C2CCCC2)c1=O [Palbociclib] (first compound max 10 µM, 7x7, partner max 10 µM) | -0.0053 | -0.0036 | -0.0006 | 0.0075 | 0.0014 | 0.0909 | 0.0531 | -0.0317 | 0.398 | 0.623
9 | C[C@@H](Oc1cc(-c2cnn(C3CCNCC3)c2)cnc1N)c1c(Cl)ccc(F)c1Cl [Crizotinib] + CC1=C(C(=CC=C1)Cl)NC(=O)C2=CN=C(S2)NC3=CC(=NC(=N3)C)N4CCN(CC4)CCO [Dasatinib] (first compound max 10 µM, 7x7, partner max 2 µM) | -0.0571 | 0 | -0.0059 | 0.0078 | 0.0338 | 0.0145 | 0.031 | 0.0389 | 0.79 | 0.972
10 | C[C@@H](Oc1cc(-c2cnn(C3CCNCC3)c2)cnc1N)c1c(Cl)ccc(F)c1Cl [Crizotinib] + Cn1cnc2c(F)c(Nc3ccc(Br)cc3Cl)c(C(=O)NOCCO)cc21 [Selumetinib] (first compound max 10 µM, 7x7, partner max 10 µM) | -0.0627 | -0.0153 | -0.0073 | -0.0411 | -0.0324 | -0.0068 | -0.0956 | -0.0078 | 0.59 | 0.926
11 | CS(=O)(=O)CCNCc1ccc(-c2ccc3ncnc(Nc4ccc(OCc5cccc(F)c5)c(Cl)c4)c3c2)o1 [Lapatinib] + Cn1cnc2c(F)c(Nc3ccc(Br)cc3Cl)c(C(=O)NOCCO)cc21 [Selumetinib] (first compound max 10 µM, 7x7, partner max 10 µM) | -0.0259 | 0.0206 | -0.049 | -0.0254 | -0.0161 | -0.0701 | -0.0077 | -0.0065 | 0.446 | 0.717
12 | O=C(c1cc(Cc2n[nH]c(=O)c3ccccc23)ccc1F)N1CCN(C(=O)C2CC2)CC1 [Olaparib] + CC1(C)CCC(CN2CCN(c3ccc(C(=O)NS(=O)(=O)c4ccc(NCC5CCOCC5)c([N+](=O)[O-])c4)c(Oc4cnc5[nH]ccc5c4)c3)CC2)=C(c2ccc(Cl)cc2)C1 [Venetoclax] (first compound max 10 µM, 7x7, partner max 1 µM) | 0.0371 | -0.0116 | -0.0168 | -0.0215 | -0.061 | 0.0029 | -0.0606 | -0.0605 | 0.191 | 0.352
13 | O=C(c1cc(Cc2n[nH]c(=O)c3ccccc23)ccc1F)N1CCN(C(=O)C2CC2)CC1 [Olaparib] + CN(CC[C@H](CSC1=CC=CC=C1)NC2=C(C=C(C=C2)S(=O)(=O)NC(=O)C3=CC=C(C=C3)N4CCC(CC4)[C@H](C5=CC=CC=C5C6=CC=C(C=C6)Cl)O)S(=O)(=O)C(F)(F)F)CCO [AZD4320] (first compound max 10 µM, 7x7, partner max 1 µM) | 0.0141 | 0.0363 | -0.0318 | -0.0332 | -0.0414 | 0.0022 | -0.0397 | -0.0662 | 0.183 | 0.447
14 | O=C(c1cc(Cc2n[nH]c(=O)c3ccccc23)ccc1F)N1CCN(C(=O)C2CC2)CC1 [Olaparib] + COc1nnc2ccc(N3CCC(c4ccc(OCCN5CCN(C)C(=O)[C@H]5C)cc4)CC3)nn12 [AZD5153] (first compound max 10 µM, 7x7, partner max 1 µM) | -0.0063 | -0.0202 | -0.0771 | -0.0056 | -0.0584 | -0.0792 | 0.0021 | -0.0489 | 0.475 | 0.864
15 | Cc1nc(-c2cn3c(n2)-c2ccc(-c4cnn(C(C)(C)C(N)=O)c4)cc2OCC3)n(C(C)C)n1 [Taselisib] + O=C(Nc1ccc2[nH]nc(-c3ccncc3)c2c1)[C@@H]1CCN(CC(=O)N2CCN(c3ccc(-c4ncccn4)cc3)CC2)C1 [SCH772984] (first compound max 10 µM, 7x7, partner max 5 µM) | -0.002 | -0.0018 | 0.0999 | -0.0562 | 0.0022 | 0.091 | -0.0048 | 0.0373 | 0.438 | 1
16 | CC1(C)CCC(CN2CCN(c3ccc(C(=O)NS(=O)(=O)c4ccc(NCC5CCOCC5)c([N+](=O)[O-])c4)c(Oc4cnc5[nH]ccc5c4)c3)CC2)=C(c2ccc(Cl)cc2)C1 [Venetoclax] + CS(=O)(=O)CCNCc1ccc(-c2ccc3ncnc(Nc4ccc(OCc5cccc(F)c5)c(Cl)c4)c3c2)o1 [Lapatinib] (first compound max 1 µM, 7x7, partner max 10 µM) | 0.0195 | 0.0085 | -0.059 | -0.0527 | -0.0479 | 0.007 | -0.0415 | -0.0532 | 0.646 | 0.426
